Values joined by “and” are separate entries in the source; they are usually repeats but may differ in a detail not shown here. Equal values may be shown once.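 Values below derive from 48-hour exposures of cells grown in 96-well plates, with endpoints linearly interpolated between the two concentrations bracketing the appropriate inhibition level. GI50 = concentration required for 50% inhibition of growth. TGI: total growth inhibition.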
The compounds below were run on HCC-2998 colon (assay: NCI tumour cell line growth inhibition, 48 h).
For O=c1c2cc(Cl)ccc2oc2ccc(OCCCCCN3CCCCC3)cc12, the GI50 was 8.55 µM and the TGI was 16.9 µM.
With Cc1cc(I)cc(CN(C)CCCN2CCSCC2)c1O the GI50 was 17.5 µM and the TGI was 32.5 µM.
For Cc1[nH]c2ccccc2c1C1Cc2ccccc2N1C(=O)/C=C\C(=O)O (stereo not given), the TGI was greater than 100 µM.
O=C1c2ccccc2C(=O)N1CCCSc1ccccc1 showed a TGI greater than 100 µM.
CCOC(=O)Nc1nc2ccc(Cn3cccc3)cc2[nH]1 was tested, and the TGI was greater than 26.5 µM.
Work on COc1cc(Nc2nccc(Nc3ccc4c(C)[nH]nc4c3)n2)cc(OC)c1OC yielded a GI50 of 3.17 µM and a TGI of 8.46 µM.
For COc1ccc(/C=N\NC(=O)CN2CCN(c3cc4c(cc3F)c(=O)c(C(=O)N/N=C/c3ccc(OC)c(OC)c3)cn4C3CC3)CC2)cc1OC, the GI50 was 3.52 µM and the TGI was 12.7 µM.

Each compound was assayed on NCI-H460 lung (assay: NCI tumour cell line growth inhibition, 48 h).
O=S(=O)(NC1=NCCN1C(=S)SN1CCn2c1nsc2=S)c1ccc(Br)cc1 showed a GI50 of 38.9 µM and a TGI greater than 100 µM.
In the case of CC(=O)N[C@H]1C=C[C@@H]2/C=C(C)/C=C/[C@@H](C)[C@H]([C@H](C)[C@H](O)[C@@H](C)NC(C)=O)OC(=O)/C=C/C=C(C)\C=C\[C@]2(C)C1, the GI50 is reported as 0.0045 µM and the TGI is reported as greater than 45 µM.
Work on O=C1c2ccccc2-c2c1c1ccccc1c(=O)n2CCCNCCCn1ccnc1 yielded a GI50 of 1.27 µM and a TGI of 43.1 µM.
Compound CC1=C(C(=O)Nc2ccccc2C)C(c2ccc(Cl)c(Cl)c2)C(C(=O)Nc2ccccc2C)=C(C)N1 has a TGI of 36.4 µM.
ClCc1cccc(Cn2cnc3c(NC45CC6CC(CC(C6)C4)C5)ncnc32)c1 gave a GI50 of 16 µM and a TGI of 43 µM.
With O=c1c2cc(Cl)ccc2oc2ccc(OCCCCCN3CCCCC3)cc12 the GI50 was 1.73 µM and the TGI was 5.55 µM.
Work on Cc1cc(I)cc(CN(C)CCCN2CCSCC2)c1O yielded a GI50 of 17.8 µM and a TGI of 40.2 µM.
Compound Cc1[nH]c2ccccc2c1C1Cc2ccccc2N1C(=O)/C=C\C(=O)O (stereo not given) has a TGI greater than 100 µM.
Work on O=C1c2ccccc2C(=O)N1CCCSc1ccccc1 yielded a TGI greater than 100 µM.
For CCOC(=O)Nc1nc2ccc(Cn3cccc3)cc2[nH]1, the TGI was greater than 100 µM.
COc1cc(Nc2nccc(Nc3ccc4c(C)[nH]nc4c3)n2)cc(OC)c1OC was tested, and the GI50 was 1.29 µM and the TGI was 5.3 µM.
Work on COc1ccc(/C=N\NC(=O)CN2CCN(c3cc4c(cc3F)c(=O)c(C(=O)N/N=C/c3ccc(OC)c(OC)c3)cn4C3CC3)CC2)cc1OC yielded a GI50 of 2.6 µM and a TGI of 6.87 µM.

Each compound was assayed on A549 NSCLC (assay: NCI tumour cell line growth inhibition, 48 h).
For O=S(=O)(NC1=NCCN1C(=S)SN1CCn2c1nsc2=S)c1ccc(Br)cc1, the GI50 was greater than 100 µM and the TGI was greater than 100 µM.
For CC(=O)N[C@H]1C=C[C@@H]2/C=C(C)/C=C/[C@@H](C)[C@H]([C@H](C)[C@H](O)[C@@H](C)NC(C)=O)OC(=O)/C=C/C=C(C)\C=C\[C@]2(C)C1, the TGI was 4.65 µM and > 45 µM.
For O=C1c2ccccc2-c2c1c1ccccc1c(=O)n2CCCNCCCn1ccnc1, the GI50 was 1.02 µM and the TGI was 20.1 µM.
With CC1=C(C(=O)Nc2ccccc2C)C(c2ccc(Cl)c(Cl)c2)C(C(=O)Nc2ccccc2C)=C(C)N1 the TGI was greater than 100 µM.
ClCc1cccc(Cn2cnc3c(NC45CC6CC(CC(C6)C4)C5)ncnc32)c1 gave a GI50 of 21.7 µM and a TGI greater than 60.1 µM.
In the case of O=c1c2cc(Cl)ccc2oc2ccc(OCCCCCN3CCCCC3)cc12, the GI50 is reported as 4.78 µM and the TGI is reported as 10.9 µM.
With Cc1cc(I)cc(CN(C)CCCN2CCSCC2)c1O the GI50 was 30.7 µM and the TGI was greater than 100 µM.
Cc1[nH]c2ccccc2c1C1Cc2ccccc2N1C(=O)/C=C\C(=O)O (stereo not given) showed a TGI greater than 100 µM.
O=C1c2ccccc2C(=O)N1CCCSc1ccccc1 was tested, and the TGI was greater than 100 µM.
CCOC(=O)Nc1nc2ccc(Cn3cccc3)cc2[nH]1 showed a TGI greater than 100 µM.
In the case of COc1cc(Nc2nccc(Nc3ccc4c(C)[nH]nc4c3)n2)cc(OC)c1OC, the GI50 is reported as 1.26 µM and the TGI is reported as 5.41 µM.
COc1ccc(/C=N\NC(=O)CN2CCN(c3cc4c(cc3F)c(=O)c(C(=O)N/N=C/c3ccc(OC)c(OC)c3)cn4C3CC3)CC2)cc1OC gave a GI50 of 4.3 µM and a TGI of 75.9 µM.

— PubChem BioAssay (NCI)
